Measurements taken from patent US9925189B2, “Heterocyclic receptor agonists for the treatment of diabetes and metabolic disorders” (CymaBay Therapeutics, Inc., priority 2006, dated 2018).

Biological target: T1, IC-GPCR2 (Homo sapiens, UniProt Q8TDV5, S309L)
T1 construct: expressed in transfected cells
T1 sequence (Q8TDV5 1-335 S309L): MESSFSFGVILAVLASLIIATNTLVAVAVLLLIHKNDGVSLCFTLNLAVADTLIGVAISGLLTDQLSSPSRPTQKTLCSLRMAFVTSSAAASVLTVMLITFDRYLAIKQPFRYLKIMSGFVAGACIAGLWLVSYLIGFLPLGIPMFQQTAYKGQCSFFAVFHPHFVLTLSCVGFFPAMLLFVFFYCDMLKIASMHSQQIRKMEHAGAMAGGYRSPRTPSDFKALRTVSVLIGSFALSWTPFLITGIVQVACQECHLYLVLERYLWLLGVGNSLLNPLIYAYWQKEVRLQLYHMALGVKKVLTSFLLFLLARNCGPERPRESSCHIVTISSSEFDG
Assay: Stimulation of cAMP in CHO cells stably expressing IC-GPCR2 (HTRF cAMP assay)
Format: cell-based
Conditions: 0.5 h, 30 minutes, IC-GPCR2 stably expressing CHO cells, read-out: Activity at 10 uM (% change in FRET signal from DMSO control)
In short: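 CHO cells stably expressing IC-GPCR2, plated at 17500 cells/well, treated next day for 30 min in Ham's F12 with compounds at 6–8 concentrations from 0.00003 to 10 μM; parental CHO cells also screened. Intracellular cAMP read by HTRF competitive immunoassay (665/620 nm ratio). Activity given as % FRET change from DMSO control.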

Structure (SMILES)	activation at 10 µM
CC(C)(C)OC(=O)N1CCC(c2nc(COc3ccc(OCc4ccccc4)cc3)cs2)CC1 [Example 135, 4-[4-(4-Benzyloxy-phenoxymethyl)-thiazol-2-yl]-piperidine-1-carboxylic acid tert-butyl ester]	66%
CC(C)(C)OC(=O)N1CCC(c2nc(COc3ccccc3)cs2)CC1 [Example 137, 4-(4-Phenoxymethyl-thiazol-2-yl)-piperidine-1-carboxylic acid tert-butyl ester]	35%
CC(C)(C)OC(=O)N1CCC(c2nc(CNc3ccc(S(C)(=O)=O)cc3)cs2)CC1 [Example 138, 4-{4-[(4-Methanesulfonyl-phenylamino)-methyl]-thiazol-2-yl}-piperidine-1-carboxylic acid tert-butyl ester]	64%
CC(C)(C)OC(=O)N1CCC(c2nc(COc3ccc(Br)cc3)cs2)CC1 [Example 140, 4-[4-(4-Bromo-phenoxymethyl)-thiazol-2-yl]-piperidine-1-carboxylic acid tert-butyl ester]	62%
CCc1cnc(N2CCC(c3nc(CNc4ccc(S(C)(=O)=O)cc4F)cs3)CC2)nc1 [Example 141, {2-[1-(5-Ethyl-pyrimidin-2-yl)-piperidin-4-yl]-thiazol-4-ylmethyl}-(2-fluoro-4-methanesulfonyl-phenyl)-amine]	64%
CC(C)(C)OC(=O)N1CCC(c2nc(CNCc3ccc(S(C)(=O)=O)cc3)cs2)CC1 [Example 142, 4-{4-[(4-Methanesulfonyl-benzylamino)-methyl]-thiazol-2-yl}-piperidine-1-carboxylic acid tert-butyl ester]	78%
C[C@H](NCc1csc(C2CCN(C(=O)OC(C)(C)C)CC2)n1)c1ccc(S(C)(=O)=O)cc1 [Example 143, 4-(4-{[1-(4-Methanesulfonyl-phenyl)-ethylamino]-methyl}-thiazol-2-yl)-piperidine-1-carboxylic acid tert-butyl ester]	63%
O=C(OC1CCCCC1)N1CCC(c2nc(COc3ccc(-n4cnnn4)cc3)cs2)CC1 [Example 147, 4-[4-(4-Tetrazol-1-yl-phenoxymethyl)-thiazol-2-yl]-piperidine-1-carboxylic acid cyclohexyl ester]	56%
CC(C)OC(=O)N1CCC(c2nc(COc3ccc(S(C)(=O)=O)cc3F)cs2)CC1 [Example 148, 4-[4-(2-Fluoro-4-methanesulfonyl-phenoxymethyl)-thiazol-2-yl]-piperidine-1-carboxylic acid isopropyl ester]	74%
CCCN1CCC(c2nc(COc3ccc(-n4cnnn4)cc3)cs2)CC1 [Example 150, 1-Propyl-4-[4-(4-tetrazol-1-yl-phenoxymethyl)-thiazol-2-yl]-piperidine]	32%
CC(C)(C)C(=O)CN1CCC(c2nc(COc3ccc(-n4cnnn4)cc3)cs2)CC1 [Example 151, 3,3-Dimethyl-1-{4-[4-(4-tetrazol-1-yl-phenoxymethyl)-thiazol-2-yl]-piperidin-1-yl}-butan-2-one]	54%
CCCCN1CCC(c2nc(COc3ccc(-n4cnnn4)cc3)cs2)CC1 [Example 152, 1-Butyl-4-[4-(4-tetrazol-1-yl-phenoxymethyl)-thiazol-2-yl]-piperidine]	68%
O=C(CN1CCC(c2nc(COc3ccc(-n4cnnn4)cc3)cs2)CC1)c1ccc(OC(F)(F)F)cc1 [Example 153, 2-{4-[4-(4-Tetrazol-1-yl-phenoxymethyl)-thiazol-2-yl]-piperidin-1-yl}-1-(4-trifluoromethoxy-phenyl)-ethanone]	44%
CS(=O)(=O)N1CCC(c2nc(COc3ccc(-n4cnnn4)cc3)cs2)CC1 [Example 154, 1-Methanesulfonyl-4-[4-(4-tetrazol-1-yl-phenoxymethyl)-thiazol-2-yl]-piperidine]	66%
CCCCCCCOC(=O)N1CCC(c2nc(COc3ccc(-n4cnnn4)cc3)cs2)CC1 [Example 155, 4-[4-(4-Tetrazol-1-yl-phenoxymethyl)-thiazol-2-yl]-piperidine-1-carboxylic acid heptyl ester]	73%
Cc1ccc(S(=O)(=O)N2CCC(c3nc(COc4ccc(-n5cnnn5)cc4)cs3)CC2)cc1 [Example 156, 4-[4-(4-Tetrazol-1-yl-phenoxymethyl)-thiazol-2-yl]-1-(toluene-4-sulfonyl)-piperidine]	6%
CC(C)(C)OCC(=O)N1CCC(c2nc(COc3ccc(-n4cnnn4)cc3)cs2)CC1 [Example 157, 2-tert-Butoxy-1-{4-[4-(4-tetrazol-1-yl-phenoxymethyl)-thiazol-2-yl]-piperidin-1-yl}-ethanone]	57%
CCc1cnc(N2CCC(c3nc(COc4c(F)cc(-n5cnnn5)cc4F)cs3)CC2)nc1 [Example 159, 2-{4-[4-(2,6-Difluoro-4-tetrazol-1-yl-phenoxymethyl)-thiazol-2-yl]-piperidin-1-yl}-5-ethyl-pyrimidine]	78%
CCc1cnc(N2CCC(c3nc(COc4ccc(-n5cccc5)cc4)cs3)CC2)nc1 [Example 160, 5-Ethyl-2-{4-[4-(4-pyrrol-1-yl-phenoxymethyl)-thiazol-2-yl]-piperidin-1-yl}-pyrimidine]	77%
CCc1cnc(N2CCC(c3nc(CNc4ccc(-n5cnnn5)cc4)cs3)CC2)nc1 [Example 161, {2-[1-(5-Ethyl-pyrimidin-2-yl)-piperidin-4-yl]-thiazol-4-ylmethyl}-(4-tetrazol-1-yl-phenyl)-amine]	79%
CC(C)c1cnc(N2CCC(c3nc(COc4ccc(-n5cnnn5)cc4F)cs3)CC2)nc1 [Example 162, 2-{4-[4-(2-Fluoro-4-tetrazol-1-yl-phenoxymethyl)-thiazol-2-yl]-piperidin-1-yl}-5-isopropyl-pyrimidine]	79%
CCc1cnc(N2CCC(c3nc(COc4ccc(-n5cnnn5)cc4C)cs3)CC2)nc1 [Example 164, 5-Ethyl-2-{4-[4-(2-methyl-4-tetrazol-1-yl-phenoxymethyl)-thiazol-2-yl]-piperidin-1-yl}-pyrimidine]	68%
Clc1cnc(N2CCC(c3nc(COc4ccc(-n5cnnn5)cc4Cl)cs3)CC2)nc1 [Example 165, 5-Chloro-2-{4-[4-(2-chloro-4-tetrazol-1-yl-phenoxymethyl)-thiazol-2-yl]-piperidin-1-yl}-1-pyrimidine]	71%
FC(F)(F)c1cnc(N2CCC(c3nc(COc4ccc(-n5cnnn5)cc4Cl)cs3)CC2)nc1 [Example 166, 2-{4-[4-(2-Chloro-4-tetrazol-1-yl-phenoxymethyl)-thiazol-2-yl]-piperidin-1-yl}-5-trifluoromethyl-pyrimidine]	74%
CCc1cnc(N2CCC(c3nc(COc4ccc(-n5cnnn5)cc4)co3)CC2)nc1 [Example 169, 5-Ethyl-2-{4-[4-(4-tetrazol-1-yl-phenoxymethyl)-oxazol-2-yl]-piperidin-1-yl}-pyrimidine]	85%
CCc1cnc(N2CCC(c3nc(COc4ccc(-n5cnnn5)cc4F)co3)CC2)nc1 [Example 170, 5-Ethyl-2-{4-[4-(2-fluoro-4-tetrazol-1-yl-phenoxymethyl)-oxazol-2-yl]-piperidin-1-yl}-pyrimidine]	75%
